From patent US20260258033A1, “2,7-Naphthyridine Compounds as MASTL Inhibitors” (Pfizer Inc., priority 2022, published 2026) come the findings set out here.

Molecules are shown by their SMILES.

This experiment concerns the target T1, Full-length human recombinant N-term FLAG-tagged MASTL protein (Homo sapiens, UniProt Q96GX5).
T1 sequence (Q96GX5 1-879): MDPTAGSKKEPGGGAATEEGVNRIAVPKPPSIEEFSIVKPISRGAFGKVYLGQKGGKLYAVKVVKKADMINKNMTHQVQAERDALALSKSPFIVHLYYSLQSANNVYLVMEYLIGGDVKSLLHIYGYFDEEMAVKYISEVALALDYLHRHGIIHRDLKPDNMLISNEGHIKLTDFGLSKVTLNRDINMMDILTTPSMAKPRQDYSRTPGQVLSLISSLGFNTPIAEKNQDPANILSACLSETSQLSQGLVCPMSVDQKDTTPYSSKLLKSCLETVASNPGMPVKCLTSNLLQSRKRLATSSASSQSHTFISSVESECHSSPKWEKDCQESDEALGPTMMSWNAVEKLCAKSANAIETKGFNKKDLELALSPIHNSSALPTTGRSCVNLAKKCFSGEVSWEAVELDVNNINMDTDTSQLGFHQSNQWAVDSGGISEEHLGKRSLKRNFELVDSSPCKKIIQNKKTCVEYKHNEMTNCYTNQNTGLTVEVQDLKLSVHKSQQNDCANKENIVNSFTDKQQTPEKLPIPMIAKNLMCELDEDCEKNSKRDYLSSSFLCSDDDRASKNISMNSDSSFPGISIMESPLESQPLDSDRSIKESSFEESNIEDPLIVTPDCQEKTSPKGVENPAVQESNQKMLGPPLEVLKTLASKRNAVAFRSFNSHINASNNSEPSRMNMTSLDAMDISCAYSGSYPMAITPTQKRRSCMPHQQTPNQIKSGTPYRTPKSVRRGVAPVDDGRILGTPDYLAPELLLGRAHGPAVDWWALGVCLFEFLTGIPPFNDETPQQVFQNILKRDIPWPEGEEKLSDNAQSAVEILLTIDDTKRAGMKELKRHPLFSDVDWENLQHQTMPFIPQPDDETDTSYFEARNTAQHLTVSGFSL
Description: MASTL enzyme kinase assay (CHEF PhosphoSens). The following applies: MASTL Ki (nM), 3 nM MASTL, 1 mM ATP, room temperature; geometric mean of at least 3 independent determinations (* denotes n = 2).
Description: MASTL enzyme kinase assay was used to measure the inhibition constant (Ki) of Examples of the present invention.
Full-length human recombinant N-term FLAG-tagged MASTL protein (construct LJIC-3077G2), activated by CDK1, was produced at Pfizer Inc by expression in baculovirus-infected insect cells. All reagents were purchased from Sigma-Aldrich, Inc (St. Louis, MO), unless specified otherwise. Tween™ 20 detergent (10% Solution) was purchased from EMD Millipore Corp (Billerica, MA). The CHEF phosphoacceptor peptide substrate (AQT0693) was purchased from AssayQuant technologies, Inc (Marlboro, MA). […] The reactions contained 1 mM ATP and were initiated by the addition of enzyme. Initial reaction velocities were determined by following the fluorescence (λex=360 nm, λem=485 nm) of appropriate CHEF peptide substrate for 120 minutes in an end-point mode in a SpectraMax Paradigm Microplate Reader (Molecular Devices, LLC. San Jose, California). The extents of reactions were estimated to be <20%.
In the case of `CNC(c1ccnc(Nc2cc3cc(-c4cnnn4C)nc(N)c3cn2)c1)C(C)(C)C` (single isomer, unassigned) [Example 35, N^6-(4-(2,2-dimethyl-1-(methylamino)propyl)pyridin-2-yl)-3-(1-methyl-1H-1,2,3-triazol-5-yl)-2,7-naphthyridine-1,6-diamine], the inhibition constant Ki was found to be 0.32 nM. Under `CNC(C)(c1ccnc(Nc2cc3cc(-c4cnnn4C)nc(N)c3cn2)c1)C1CC1` (single isomer, unassigned) [Example 19, N^6-(4-(1-cyclopropyl-1-(methylamino)ethyl)pyridin-2-yl)-3-(1-methyl-1H-1,2,3-triazol-5-yl)-2,7-naphthyridine-1,6-diamine] stands 0.047 nM; under `CNC(C)(c1ccnc(Nc2cc3cc(-c4cnnn4C)nc(N)c3cn2)c1)C(C)C` (single isomer, unassigned) [Example 31, 3-(1-methyl-1H-1,2,3-triazol-5-yl)-N^6-(4-(3-methyl-2-(methylamino)butan-2-yl)pyridin-2-yl)-2,7-naphthyridine-1,6-diamine], 0.03 nM. Under `Cn1nncc1-c1cc2cc(Nc3cc(C(N)CC(F)(F)F)ccn3)ncc2c(N)n1` (single isomer, unassigned) [Example 17, N^6-(4-(1-amino-3,3,3-trifluoropropyl)pyridin-2-yl)-3-(1-methyl-1H-1,2,3-triazol-5-yl)-2,7-naphthyridine-1,6-diamine] stands 0.12 nM; under `CNC(C)(COC)c1ccnc(Nc2cc3cc(-c4cnnn4C)nc(N)c3cn2)c1` (single isomer, unassigned) [Example 32, N^6-(4-(1-methoxy-2-(methylamino)propan-2-yl)pyridin-2-yl)-3-(1-methyl-1H-1,2,3-triazol-5-yl)-2,7-naphthyridine-1,6-diamine], 0.087 nM. In the case of `CCC1(NC)CCc2c1ccnc2Nc1cc2cc(-c3cnnn3C)nc(N)c2cn1` (single isomer, unassigned) [Example 3, N^6-(5-ethyl-5-(methylamino)-6,7-dihydro-5H-cyclopenta[c]pyridin-1-yl)-3-(1-methyl-1H-1,2,3-triazol-5-yl)-2,7-naphthyridine-1,6-diamine], the inhibitory constant (Ki) is 0.36 nM. As for `CCC1(NC)CCc2cnc(Nc3cc4cc(-c5cnnn5C)nc(N)c4cn3)cc21` (single isomer, unassigned) [Example 6, N^6-(5-ethyl-5-(methylamino)-6,7-dihydro-5H-cyclopenta[c]pyridin-3-yl)-3-(1-methyl-1H-1,2,3-triazol-5-yl)-2,7-naphthyridine-1,6-diamine], the figure is 0.076 nM. Regarding `CNC(C)(COC)c1ccnc(Nc2cc3cc(-c4cnnn4C)nc(N)c3cn2)c1` (single isomer, unassigned) [Example 33, N^6-(4-(1-methoxy-2-(methylamino)propan-2-yl)pyridin-2-yl)-3-(1-methyl-1H-1,2,3-triazol-5-yl)-2,7-naphthyridine-1,6-diamine], the Ki was determined as 0.25 nM. Under `CCC(N)(CC)c1cc(Nc2cc3cc(-c4cnnn4C)nc(N)c3cn2)ncn1` [Example 23, N^6-(6-(3-aminopentan-3-yl)pyrimidin-4-yl)-3-(1-methyl-1H-1,2,3-triazol-5-yl)-2,7-naphthyridine-1,6-diamine] stands 0.057 nM. As for `CCC1(NC)CCc2cnc(Nc3cc4cc(-c5cnnn5C)nc(N)c4cn3)cc21` (single isomer, unassigned) [Example 5, N^6-(5-ethyl-5-(methylamino)-6,7-dihydro-5H-cyclopenta[c]pyridin-3-yl)-3-(1-methyl-1H-1,2,3-triazol-5-yl)-2,7-naphthyridine-1,6-diamine], the figure is 0.033 nM. As to `CCC(N)c1cc(Nc2cc3cc(-c4cnnn4C)nc(N)c3cn2)ncc1C` (single isomer, unassigned) [Example 13, N^6-(4-(1-aminopropyl)-5-methylpyridin-2-yl)-3-(1-methyl-1H-1,2,3-triazol-5-yl)-2,7-naphthyridine-1,6-diamine], the Ki stood at 0.065 nM.

Regarding `Cn1nncc1-c1cc2cc(Nc3cc(C(C)(N)C(F)(F)F)ccn3)ncc2c(N)n1` (single isomer, unassigned) [Example 28, N^6-(4-(2-amino-1,1,1-trifluoropropan-2-yl)pyridin-2-yl)-3-(1-methyl-1H-1,2,3-triazol-5-yl)-2,7-naphthyridine-1,6-diamine], the Ki was 0.093 nM.

Turning to `Cn1nncc1-c1cc2cc(Nc3cc(C(N)CC(F)(F)F)ccn3)ncc2c(N)n1` (single isomer, unassigned) [Example 18, N^6-(4-(1-amino-3,3,3-trifluoropropyl)pyridin-2-yl)-3-(1-methyl-1H-1,2,3-triazol-5-yl)-2,7-naphthyridine-1,6-diamine], the Ki turned out to be 0.088 nM.

On to `CNC1(c2ccnc(Nc3cc4cc(-c5cnnn5C)nc(N)c4cn3)c2)CCCC1` [Example 27, 3-(1-methyl-1H-1,2,3-triazol-5-y1)-N^6-(4-(1-(methylamino)cyclopentyl)pyridin-2-yl)-2,7-naphthyridine-1,6-diamine], for which the Ki amounted to 0.073 nM. As for `CN(C)C(C)(C)c1ccnc(Nc2cc3cc(-c4cnnn4C)nc(N)c3cn2)c1` [Example 36, N^6-(4-(2-(dimethylamino)propan-2-yl)pyridin-2-yl)-3-(1-methyl-1H-1,2,3-triazol-5-yl)-2,7-naphthyridine-1,6-diamine], the figure is 0.061 nM; as for `Cn1nncc1-c1cc2cc(Nc3cc(C(C)(N)CC(F)(F)F)ccn3)ncc2c(N)n1` (single isomer, unassigned) [Example 25, N^6-(4-(2-amino-4,4,4-trifluorobutan-2-yl)pyridin-2-yl)-3-(1-methyl-1H-1,2,3-triazol-5-yl)-2,7-naphthyridine-1,6-diamine], 0.078 nM. In the case of `Cn1nncc1-c1cc2cc(Nc3cc(C(C)(N)C(F)(F)F)ccn3)ncc2c(N)n1` (single isomer, unassigned) [Example 29, N^6-(4-(2-amino-1,1,1-trifluoropropan-2-yl)pyridin-2-yl)-3-(1-methyl-1H-1,2,3-triazol-5-yl)-2,7-naphthyridine-1,6-diamine], the Ki was found to be 0.17 nM.

In the case of `CCC1(NC)CCc2c1ccnc2Nc1cc2cc(-c3cnnn3C)nc(N)c2cn1` (single isomer, unassigned) [Example 4, N^6-(5-ethyl-5-(methylamino)-6,7-dihydro-5H-cyclopenta[c]pyridin-1-yl)-3-(1-methyl-1H-1,2,3-triazol-5-yl)-2,7-naphthyridine-1,6-diamine], the Ki was determined as 0.47 nM. Under `CCn1nncc1-c1cc2cc(Nc3cc(C(C)(C)NC)ccn3)ncc2c(N)n1` [Example 37, 3-(1-ethyl-1H-1,2,3-triazol-5-yl)-N^6-(4-(2-(methylamino)propan-2-yl)pyridin-2-yl)-2,7-naphthyridine-1,6-diamine] stands 0.059 nM; under `CNC(C)(c1ccnc(Nc2cc3cc(-c4cnnn4C)nc(N)c3cn2)c1)C(C)C` (single isomer, unassigned) [Example 30, 3-(1-methyl-1H-1,2,3-triazol-5-yl)-N^6-(4-(3-methyl-2-(methylamino)butan-2-yl)pyridin-2-yl)-2,7-naphthyridine-1,6-diamine], 0.036 nM. `CCC(N)c1cc(Nc2cc3cc(-c4cnnn4C)nc(N)c3cn2)ncc1C` (single isomer, unassigned) [Example 14, N^6-(4-(1-aminopropyl)-5-methylpyridin-2-yl)-3-(1-methyl-1H-1,2,3-triazol-5-yl)-2,7-naphthyridine-1,6-diamine]: the Ki is 0.098 nM. Under `Cn1nncc1-c1cc2cc(Nc3cc(C(C)(N)CC(F)(F)F)ccn3)ncc2c(N)n1` (single isomer, unassigned) [Example 26, N^6-(4-(2-amino-4,4,4-trifluorobutan-2-yl)pyridin-2-yl)-3-(1-methyl-1H-1,2,3-triazol-5-yl)-2,7-naphthyridine-1,6-diamine] stands 0.075 nM; under `CNC(c1ccnc(Nc2cc3cc(-c4cnnn4C)nc(N)c3cn2)c1)C(C)(C)C` (single isomer, unassigned) [Example 34, N^6-(4-(2,2-dimethyl-1-(methylamino)propyl)pyridin-2-yl)-3-(1-methyl-1H-1,2,3-triazol-5-yl)-2,7-naphthyridine-1,6-diamine], 0.23 nM. As to `CNC1(c2ccnc(Nc3cc4cc(-c5cnnn5C)nc(N)c4cn3)c2)CCC1` [Example 24, 3-(1-methyl-1H-1,2,3-triazol-5-y1)-N^6-(4-(1-(methylamino)cyclobutyl)pyridin-2-yl)-2,7-naphthyridine-1,6-diamine], the Ki was 0.089 nM. Under `CCn1nncc1-c1cc2cc(Nc3cc(C4(N)CCCC4)ccn3)ncc2c(N)n1` [Example 38, N^6-(4-(1-aminocyclopentyl)pyridin-2-yl)-3-(1-ethyl-1H-1,2,3-triazol-5-yl)-2,7-naphthyridine-1,6-diamine] stands 0.019 nM.
